What was measured:
[1] = molecular target: T1, ATP-binding cassette sub-family C member 8 (Homo sapiens, UniProt Q09428); assay: Displacement of [3H]glibenclamide from COS-1 cells expressing Sulfonylurea receptor 1 (SUR-1); assay type: cell-based
[2] = molecular target: T1, ATP-binding cassette sub-family C member 8; assay: In vitro displacement of [3H]glibenclamide (IC50=0.61) from COS-1 cells expressing Sulfonylurea receptor 1 (SUR-1); assay type: cell-based
Rattus norvegicus [3] = species: Rattus norvegicus; assay: In vitro ability to stimulate insulin was determined at (5 mM glucose+0.1 uM compound); assay type: functional
Rattus norvegicus [4] = species: Rattus norvegicus; assay: In vitro ability to stimulate insulin was determined at (15 mM glucose); assay type: functional
Rattus norvegicus [5] = species: Rattus norvegicus; assay: Percent relative stimulation index to stimulate insulin was determined; assay type: functional
Rattus norvegicus [6] = species: Rattus norvegicus; assay: Percent stimulation index to stimulate insulin was determined; assay type: functional

T1 sequence (Q09428 whole entry): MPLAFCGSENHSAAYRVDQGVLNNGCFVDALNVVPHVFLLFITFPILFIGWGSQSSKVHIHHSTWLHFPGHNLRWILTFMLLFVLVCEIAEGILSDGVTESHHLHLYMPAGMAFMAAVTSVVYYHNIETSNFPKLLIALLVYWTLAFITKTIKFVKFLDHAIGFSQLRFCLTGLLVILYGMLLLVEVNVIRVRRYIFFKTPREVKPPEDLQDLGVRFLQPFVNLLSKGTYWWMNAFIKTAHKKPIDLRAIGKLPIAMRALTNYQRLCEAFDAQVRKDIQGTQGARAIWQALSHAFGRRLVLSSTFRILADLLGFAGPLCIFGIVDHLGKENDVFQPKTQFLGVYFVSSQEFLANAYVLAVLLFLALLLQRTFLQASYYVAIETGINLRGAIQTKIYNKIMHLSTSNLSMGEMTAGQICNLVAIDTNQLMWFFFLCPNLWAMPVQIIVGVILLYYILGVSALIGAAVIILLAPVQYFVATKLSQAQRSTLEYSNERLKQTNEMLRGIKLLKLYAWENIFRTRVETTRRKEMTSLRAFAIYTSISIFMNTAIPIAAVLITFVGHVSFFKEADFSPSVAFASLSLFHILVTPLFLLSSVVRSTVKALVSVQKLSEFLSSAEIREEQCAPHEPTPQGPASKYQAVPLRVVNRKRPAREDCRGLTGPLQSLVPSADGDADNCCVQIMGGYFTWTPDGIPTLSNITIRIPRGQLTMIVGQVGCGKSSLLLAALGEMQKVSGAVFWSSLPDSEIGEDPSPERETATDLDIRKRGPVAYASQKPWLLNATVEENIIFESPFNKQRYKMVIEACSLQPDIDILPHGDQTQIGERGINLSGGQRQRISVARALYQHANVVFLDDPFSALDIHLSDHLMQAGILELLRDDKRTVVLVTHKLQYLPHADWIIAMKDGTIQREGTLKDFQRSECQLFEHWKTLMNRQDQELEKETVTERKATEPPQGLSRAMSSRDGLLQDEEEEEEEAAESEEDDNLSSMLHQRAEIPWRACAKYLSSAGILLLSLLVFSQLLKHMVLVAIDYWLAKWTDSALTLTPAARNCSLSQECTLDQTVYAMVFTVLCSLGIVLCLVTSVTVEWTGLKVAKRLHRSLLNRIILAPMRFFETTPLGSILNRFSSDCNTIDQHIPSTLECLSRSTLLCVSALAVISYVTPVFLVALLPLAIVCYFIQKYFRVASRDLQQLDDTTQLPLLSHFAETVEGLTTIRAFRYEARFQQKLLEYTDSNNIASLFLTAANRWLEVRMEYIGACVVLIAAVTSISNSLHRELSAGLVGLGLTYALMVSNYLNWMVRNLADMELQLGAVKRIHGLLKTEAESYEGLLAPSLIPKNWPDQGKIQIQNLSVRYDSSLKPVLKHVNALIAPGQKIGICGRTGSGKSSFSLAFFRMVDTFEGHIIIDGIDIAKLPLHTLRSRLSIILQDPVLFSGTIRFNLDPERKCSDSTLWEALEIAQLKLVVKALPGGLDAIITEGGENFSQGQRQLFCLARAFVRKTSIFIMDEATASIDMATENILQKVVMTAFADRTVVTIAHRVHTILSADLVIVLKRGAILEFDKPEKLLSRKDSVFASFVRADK

Kd [1] [nM]	IC50 [2] [nM]	SMILES	Insulin release (Rattus norvegicus [3]) [ng/islet/1h]	Insulin release (Rattus norvegicus [4]) [ng/islet/1h]	Relative stimulation index (Rattus norvegicus [5]) [%]	Stimulation index (Rattus norvegicus [6]) [fold]
134	281	CC(C)C[C@H](NC(=O)Cc1ccc(C(=O)O)c(OCCF)c1)c1ccccc1N1CCCCC1	–	–	–	–
83	163	COc1cc(CC(=O)N[C@@H](CC(C)C)c2ccccc2N2CCCCC2)ccc1C(=O)O	2	4	64	2
50	106	CCOc1cc(CC(=O)N[C@@H](CC(C)C)c2ccccc2N2CCCCC2)ccc1C(=O)O [REPAGLINIDE]	2.1	4	63	1.9
